From patent US9328374B2, “Selective culture medium and method for detecting carbapenem-resistant bacteria in a test sample” (Institut National de la Sante et de la Recherche Medicale …, priority 2011, dated 2016)

Tests used:
E. coli = test: MIC of imipenem, ertapenem and meropenem; assay type: cell-based, Escherichia coli
E. cloacae = test: MIC of imipenem, ertapenem and meropenem; assay type: cell-based, Enterobacter cloacae
P. rettgeri = test: MIC of imipenem, ertapenem and meropenem; assay type: cell-based, Providencia rettgeri
P. stuartii = test: MIC of imipenem, ertapenem and meropenem; assay type: cell-based, Providencia stuartii
C. freundii = test: MIC of imipenem, ertapenem and meropenem; assay type: cell-based, Citrobacter freundii
C. koseri = test: MIC of imipenem, ertapenem and meropenem; assay type: cell-based
E. aerogenes = test: MIC of imipenem, ertapenem and meropenem; assay type: cell-based, Enterobacter aerogenes
enterobacterial isolates = test: MIC of imipenem, ertapenem and meropenem (groups of isolates, other species); assay type: cell-based, Enterobacteriaceae

C[C@@H](O)[C@H]1C(=O)N2C(C(=O)O)=C(S[C@@H]3CN[C@H](C(=O)N(C)C)C3)[C@H](C)[C@H]12 [MEM, meropenem] showed an MIC (E. coli; strain E. coli HB4, (OmpC-, OmpF-), non-carbapenemase producer) of 0.25 µg/mL, an MIC (E. coli; strain E. coli JAP, IMP-1) of 0.5 µg/mL and an MIC (E. coli; strain E. coli MAR, Overexpressed AmpC, non-carbapenemase producer) of 2 µg/mL. For the same compound, the MIC (E. coli; strain E. coli MET, Chromosome-encoded extended-spectrum cephalosporinase, non-carbapenemase producer) was 0.012 µg/mL, the MIC (E. coli; strain E. coli ROB, OXA-48) was 0.25 µg/mL and the MIC (E. coli; strain E. coli SYD, CMY-2, non-carbapenemase producer) was 0.012 µg/mL. The MIC (E. cloacae; E. cloacae 501, OXA-48 + TEM-1 + CTX-M-15) was 1.5 µg/mL, the MIC (E. cloacae; E. cloacae 1012, TEM-1 + SHV-12, non-carbapenemase producer) was 0.016 µg/mL and the MIC (E. cloacae; E. cloacae 1019, TEM-1, non-carbapenemase producer, overexpressed AmpC) was 0.094 µg/mL. It also gave an MIC (E. cloacae; E. cloacae 1027, TEM-1 + CTX-M-15, non-carbapenemase producer) of 0.016 µg/mL, an MIC (E. cloacae; E. cloacae 1072, TEM-1 + OXA-1, non-carbapenemase producer, overexpressed AmpC) of 0.064 µg/mL and an MIC (E. cloacae; E. cloacae 5434 (wild type)) of 0.032 µg/mL. It also gave an MIC (E. cloacae; E. cloacae 5434, (wild type), non-carbapenemase producer) of 0.032 µg/mL, an MIC (E. cloacae; E. cloacae 7725, (wild type), non-carbapenemase producer) of 0.012 µg/mL and an MIC (E. cloacae; E. cloacae 7746, (wild type), non-carbapenemase producer) of 0.032 µg/mL. For the same compound, the MIC (E. cloacae; E. cloacae 10111 (TEM-1 + CTX-M-15)) was 0.094 µg/mL, the MIC (E. cloacae; E. cloacae 10111, TEM-1 + CTX-M-15, non-carbapenemase producer, overexpressed AmpC) was 0.094 µg/mL and the MIC (E. cloacae; E. cloacae 1008029, VIM-1+ CTX-M-3) was over 32 µg/mL. The MIC (E. cloacae; E. cloacae 1008079, IMP-1) was over 32 µg/mL, the MIC (E. cloacae; E. cloacae 1008187, IMP-1 + CTX-M-15) was 4 µg/mL and the MIC (E. cloacae; E. cloacae (KPC-2)) was 2 µg/mL. For the same compound, the MIC (E. cloacae; E. cloacae ARF (overexpressed AmpC)) was 0.12 µg/mL, the MIC (E. cloacae; E. cloacae ARF, Overexpressed AmpC, non-carbapenemase producer) was 0.12 µg/mL and the MIC (E. cloacae; E. cloacae AZA (overexpressed AmpC)) was 0.12 µg/mL. It also gave an MIC (E. cloacae; E. cloacae AZA, Overexpressed AmpC, non-carbapenemase producer) of 0.12 µg/mL, an MIC (E. cloacae; E. cloacae BEU, OXA-48 + TEM-1 + CTX-M-15 + SHV-12) of 0.5 µg/mL and an MIC (E. cloacae; E. cloacae BLA (overexpressed AmpC)) of 0.12 µg/mL. The MIC (E. cloacae; E. cloacae BLA, Overexpressed AmpC, non-carbapenemase producer) was 0.12 µg/mL, the MIC (E. cloacae; E. cloacae CFVL, KPC-2 + TEM-3) was 1 µg/mL and the MIC (E. cloacae; E. cloacae CLO (CTX-M-15)) was 0.12 µg/mL. For the same compound, the MIC (E. cloacae; E. cloacae CLO, CTX-M-15, non-carbapenemase producer) was 0.12 µg/mL, the MIC (E. cloacae; E. cloacae CON (overexpressed AmpC)) was 0.12 µg/mL and the MIC (E. cloacae; E. cloacae CON, Overexpressed AmpC, non-carbapenemase producer) was 0.25 µg/mL. The MIC (E. cloacae; E. cloacae CVB (VEB-1)) was 0.12 µg/mL, the MIC (E. cloacae; E. cloacae CVB, VEB-1, non-carbapenemase producer) was 0.12 µg/mL and the MIC (E. cloacae; E. cloacae HMG, KPC-2 + TEM-1) was 16 µg/mL. The MIC (E. cloacae; E. cloacae HPTU (KPC-2 + TEM-1 + SHV-11)) was 1.5 µg/mL, the MIC (E. cloacae; E. cloacae HPTU, KPC-2 + TEM-1 + SHV-11) was 1.5 µg/mL and the MIC (E. cloacae; E. cloacae IR38 (NDM-1 + CTX-M-15)) was 2 µg/mL. The MIC (E. cloacae; E. cloacae IR38, NDM-1 + CTX-M-15) was 2 µg/mL, the MIC (E. cloacae; E. cloacae KAR, VIM-1+ SHV-70) was 0.5 µg/mL and the MIC (E. cloacae; E. cloacae TAW (IMP-8 + SHV-12)) was 0.5 µg/mL. It also gave an MIC (E. cloacae; E. cloacae TAW, IMP-8 + SHV-12) of 0.5 µg/mL, an MIC (E. cloacae; E. cloacae TUR (OXA-48 + SHV-5)) of 0.5 µg/mL and an MIC (E. cloacae; E. cloacae TUR, OXA-48 + SHV-5) of 0.5 µg/mL. The MIC (E. cloacae; E. cloacae TWA, IMP-8) was 1 µg/mL, the MIC (E. cloacae; strain E. cloacae 10111, TEM-1 + CTX-M-15, non-carbapenemase producer) was 0.094 µg/mL and the MIC (E. cloacae; strain E. cloacae BLA, Overexpressed AmpC, non-carbapenemase producer) was 0.12 µg/mL. It also gave an MIC (E. cloacae; strain E. cloacae CLO, CTX-M-15, non-carbapenemase producer) of 0.12 µg/mL, an MIC (E. cloacae; strain E. cloacae CON, Overexpressed AmpC, non-carbapenemase producer) of 0.12 µg/mL and an MIC (E. cloacae; strain E. cloacae CVB, VEB-1, non-carbapenemase producer) of 0.12 µg/mL. The MIC (E. cloacae; strain E. cloacae HPTU, KPC-2 + TEM-1 + SHV-11) was 1.5 µg/mL, the MIC (E. cloacae; strain E. cloacae TAW, IMP-8 + SHV-12) was 0.5 µg/mL and the MIC (E. cloacae; strain E. cloacae TUR, OXA-48 + SHV-5) was 0.5 µg/mL. For the same compound, the MIC (P. rettgeri; P. rettgeri RAP (OXA-181 + OXA-1)) was 2 µg/mL, the MIC (P. rettgeri; P. rettgeri RAP, OXA-181 + OXA-1) was 2 µg/mL and the MIC (P. rettgeri; strain P. rettgeri RAP, OXA-181 + OXA-1) was 2 µg/mL. The MIC (P. stuartii; P. stuartii NDM (NDM-1 + OXA-1 + CMY-6)) was 1.5 µg/mL, the MIC (P. stuartii; P. stuartii PS1 (NDM-1 + CMY-6 + OXA-1)) was 1.5 µg/mL and the MIC (P. stuartii; P. stuartii PS1, NDM-1 + CMY-6 + OXA-1) was 1.5 µg/mL. For the same compound, the MIC (P. stuartii; strain P. stuartii PS1, NDM-1 + CMY-6 + OXA-1) was 1.5 µg/mL, the MIC (C. freundii; C. freundii 1003, CTX-M-15 + TEM-1, non-carbapenemase producer) was 0.023 µg/mL and the MIC (C. freundii; C. freundii 7767 (wild type)) was 0.016 µg/mL. It also gave an MIC (C. freundii; C. freundii 7767, (wild type), non-carbapenemase producer) of 0.016 µg/mL, an MIC (C. freundii; C. freundii 10107 (TEM-1 + SHV-12)) of 0.023 µg/mL and an MIC (C. freundii; C. freundii 10107, TEM-1 + SHV-12, non-carbapenemase producer) of 0.023 µg/mL. The MIC (C. freundii; C. freundii 10135 (CTX-M-15)) was 0.023 µg/mL, the MIC (C. freundii; C. freundii 10135, CTX-M-15, non-carbapenemase producer) was 0.023 µg/mL and the MIC (C. freundii; C. freundii MAU (Overexpressed AmpC + TEM-3)) was 1 µg/mL. For the same compound, the MIC (C. freundii; C. freundii MAU, Overexpressed AmpC + TEM-3, non-carbapenemase producer) was 1 µg/mL, the MIC (C. freundii; C. freundii STE (NDM-1 + OXA-1 + OXA-9 + OXA-10 + CTX-M-15 + TEM-1)) was over 32 µg/mL and the MIC (C. freundii; C. freundii STE, NDM-1 + TEM-1 + CTX-M-15 + VIM-4 + OXA-1 + OXA-9 + OXA-10 + OXA-181) was over 32 µg/mL. It also gave an MIC (C. freundii; strain C. freundii 10107, TEM-1 + SHV-12, non-carbapenemase producer) of 0.023 µg/mL, an MIC (C. freundii; strain C. freundii 10135, CTX-M-15, non-carbapenemase producer) of 0.023 µg/mL and an MIC (C. freundii; strain C. freundii MAU, Overexpressed AmpC + TEM-3, non-carbapenemase producer) of 1 µg/mL. The MIC (C. koseri; C. koseri ROU, OXA-48) was 0.38 µg/mL, the MIC (C. koseri; C. koseri VER (OXA-48)) was 0.38 µg/mL and the MIC (C. koseri; C. koseri VER, OXA-48) was 0.38 µg/mL. The MIC (C. koseri; strain C. koseri VER, OXA-48) was 0.38 µg/mL, the MIC (E. aerogenes; E. aerogenes 1009, TEM-24, non-carbapenemase producer) was 0.016 µg/mL and the MIC (E. aerogenes; E. aerogenes 1085 (TEM-24)) was 0.023 µg/mL. It also gave an MIC (E. aerogenes; E. aerogenes 1085, TEM-24, non-carbapenemase producer) of 0.023 µg/mL, an MIC (E. aerogenes; strain E. aerogenes 1085, TEM-24, non-carbapenemase producer) of 0.023 µg/mL and an MIC (enterobacterial isolates; S. marcescens 0911033, IMP-1) of over 32 µg/mL. The MIC (enterobacterial isolates; S. marcescens 1008091, VIM-1+ CTX-M-15) was over 32 µg/mL, the MIC (enterobacterial isolates; S. marcescens C7052, KPC-2 + TEM-1 + SHV-12) was over 32 µg/mL and the MIC (enterobacterial isolates; S. marcescens D6403, KPC-2 + TEM-1) was over 32 µg/mL.
